This assay concerns EGFR. Put plainly: Tyrosine phosphorylation of EGFR in NCI-H292 cells. The assay is classed as cell-based, human. Particulars: HAST 0.3 U/mL, 30 to 240 minutes. The protocol: NCI-H292 cells (purchased from ATCC) were suspended in 10% FCS-containing RPMI-1640 (produced by Gibco Corp.) and then sowed on a 12 well plate (made by Falcon Corp.) in a density of 6.0×10^4 cells/cm^2. The cells were cultured for 72 hours, subjected to the replacement of the culture medium by 0.1% BSA-containing RPMI-1640, and further cultured for 24 hours.
On the day of the treatment, the culture solution of the wells was replaced by RPMI-1640 (containing 0.1% BSA) containing HAST (0.3 U/mL), EGF (1 μg/mL), and the treatments were carried out for 30, 60, 120, 180, 240 minutes, respectively.
The cells treated with the HAST or the EGF for the prescribed time were twice washed with ice-cooled PBS, mixed with 500 μL of an ice-cooled Lysis buffer solution (50 mM Tris-HCl, pH 7.4, 5 mM EDTA, 1% Triton X-100 (Sigma), 150 mM NaCl, 10% glycerol, 1% Protease inhibitor Cocktail (Sigma), 1% Phosphatase Inhibitor Cocktail (Sigma)), allowed to stand on ice for 15 minutes, and then recovered in a micro tube. The recovered product in the micro tube was centrifuged at 15,000 rpm at 4° C. for 10 minutes, and the supernatant was recovered as a sample. The protein concentration of the sample was assayed with BioRad Protein Assay (produced by Bio Rad Corp.), and properly diluted with the Lysis buffer solution so that the protein concentrations in all the samples become 1.48 mg/mL. […]

Consider “HAST: human airway-specific trypsin-like enzyme; propeptide moiety bound to trypsin-like protein moiety via a disulfide bond”, for which the “tyrosine phosphorylation of EGFR” value is recorded as “activated EGFR”.
